The test addresses Janus kinase 2 (JAK2) (Homo sapiens, UniProt O60674).

Each structure is given as a SMILES string.

Sequence of Janus kinase 2 (JAK2) (O60674 whole entry): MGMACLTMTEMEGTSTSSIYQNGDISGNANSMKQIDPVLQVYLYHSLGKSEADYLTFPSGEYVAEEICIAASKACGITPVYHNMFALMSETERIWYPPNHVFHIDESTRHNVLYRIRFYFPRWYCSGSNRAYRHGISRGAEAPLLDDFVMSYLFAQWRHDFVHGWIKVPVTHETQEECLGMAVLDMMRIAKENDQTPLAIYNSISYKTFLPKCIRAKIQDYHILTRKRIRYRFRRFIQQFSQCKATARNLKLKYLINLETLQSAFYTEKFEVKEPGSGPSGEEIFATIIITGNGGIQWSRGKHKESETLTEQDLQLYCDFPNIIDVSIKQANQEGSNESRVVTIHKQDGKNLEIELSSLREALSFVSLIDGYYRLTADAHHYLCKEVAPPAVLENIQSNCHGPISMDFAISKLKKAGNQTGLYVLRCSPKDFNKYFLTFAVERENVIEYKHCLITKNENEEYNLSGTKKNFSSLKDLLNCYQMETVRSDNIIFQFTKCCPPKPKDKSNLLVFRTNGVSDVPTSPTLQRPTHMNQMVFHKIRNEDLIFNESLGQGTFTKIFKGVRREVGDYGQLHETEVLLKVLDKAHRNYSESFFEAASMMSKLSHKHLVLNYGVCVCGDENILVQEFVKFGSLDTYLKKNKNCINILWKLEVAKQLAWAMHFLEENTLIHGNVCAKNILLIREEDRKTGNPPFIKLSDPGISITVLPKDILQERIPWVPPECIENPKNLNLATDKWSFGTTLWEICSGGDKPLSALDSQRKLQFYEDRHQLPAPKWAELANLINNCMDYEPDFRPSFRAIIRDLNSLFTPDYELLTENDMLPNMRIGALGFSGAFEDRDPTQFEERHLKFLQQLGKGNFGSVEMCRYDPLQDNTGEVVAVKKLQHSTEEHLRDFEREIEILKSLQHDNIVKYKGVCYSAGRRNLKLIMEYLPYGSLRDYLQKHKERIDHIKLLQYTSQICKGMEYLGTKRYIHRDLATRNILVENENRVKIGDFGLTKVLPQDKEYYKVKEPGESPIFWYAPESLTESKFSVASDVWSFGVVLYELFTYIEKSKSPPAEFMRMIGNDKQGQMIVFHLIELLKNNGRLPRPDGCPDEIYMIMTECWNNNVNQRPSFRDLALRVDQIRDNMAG

Compound `CN1CCN(c2cccc(Nc3nc4c(-c5ccc(S(C)(=O)=O)cc5)cccn4n3)c2)CC1` [CEP-33779] displayed an IC50 of 1.8 ± 0.6 nM.
